One assay has as its system HCT-116 colon carcinoma. In words: Inhibition of cell proliferation, 14C-thymidine incorporation, HCT-116. The assay is classed as cell-based. The note with it: Homo sapiens. The protocol:
The ability of a test compound to inhibit the proliferation of cell growth was determined by measuring incorporation of ^14C-labelled thymidine into newly synthesized DNA within the cells. This method was used on cell lines derived from carcinomas originating from several tissues such as HeLa cervical adenocarcinoma (American Type Culture Collection (ATCC), Virginia, Cat. #CCL-2), HCT-116 colon carcinoma (CCL-247), MDA-MB-231 (Xenogen Corp.), PC-3 prostate adenocarcinoma (ATCC CRL-1435) and A375 malignant melanoma (ATCC CRL-1619).
Using this method, the effect of a compound on cell growth of cells with many different phenotypes can be determined. Cells were trypsinized and counted and 3000–8000 cells were added to each well of a 96-well CytoStar tissue culture treated scintillating microplate (Amersham #RPNQ0160) in complete medium in a volume of 100 μl. Cells were incubated for 24 hours in complete medium at 37° C. in an atmosphere containing 5% CO2. 1 μL of test compound in 100% DMSO was then added to the wells of the plate. DMSO only was added to control wells. Cells were incubated for 24 more hours in complete medium at 37° C. in an atmosphere containing 5% CO2. […] The degree of methyl ^14C-thymidine incorporation was quantified on a Packard Top Count.
On the technique in general: Uptake of a labelled nucleoside into DNA is a usual measure of proliferation.

Assay [1] has as its target T1, VEGF-R (rat VEGF-R2 kinase domain) (Rattus norvegicus, UniProt O08775).
T1 construct: 6xHis (polyhistidine) (N)
The assay is described as follows: VEGF-R Screening Assay. The assay is classed as biochemical. The protocol:
A kinase reaction mixture was prepared containing 50 mM Tris-HCl pH=8, 10 mM MgCl2, 0.1 mM Na3PO4, 1 mM DTT, 10 μM ATP, 0.025 μM biotinylated peptide substrate (also referred to herein as PLC-1 biotinylated peptide substrate and PDGF receptor substrate, sequence provided in the peptide substrate table) and 0.8 μCuries per well ^33P-γ-ATP (2000–3000 Ci/mmol). 70 μL of the kinase reaction mixture was dispensed into the well of a streptavidin coated FlashPlate™ (Cat. # SMP103, NEN, Boston, Mass.). Then 1 μL of test compound stock in 100% DMSO was added to the wells resulting in a final concentration of 1% DMSO in the reaction with a 100 μL final reaction volume. Next, soluble rat VEGF tyrosine kinase containing an N-terminal 6XHIS tag was diluted in 50 mM Tris-HCl pH=8.0, 0.1% BSA at a concentration of 5 ng per μL and 30 μL (150 ng enzyme per test well) was added to each well to initiate the reaction. The reaction was incubated for one hour at 30° C. At the end of the 1-hour incubation, the reaction was terminated by aspirating the reaction mixture from the plate and washing the wells twice with PBS containing 100 mM EDTA. The PLC1 biotinylated peptide substrate became immobilized on the Flashplate™ and the incorporation of ^33P-γ-ATP was measured by reading the plate on a scintillation counter. Inhibition of the enzymatic activity of the VEGF-R was measured by observing a reduced amount of ^33P-γ-ATP incorporated into the immobilized peptide.
Assays to test compound inhibition of other kinases were preformed using methods that measure the amount of phosphorylation of a biotinylated peptide substrate. Biotinylated peptide substrates were selected from the literature as appropriate for the enzyme being evaluated. The general procedure used to assay for kinase activity is as follows: a kinase reaction mix was prepared in 50 mM Tris-HCl pH=8, 10 mM MgCl2, 0.1 mM Na3VO4, 1 mM DTT, 10 μM ATP, 0.25–1 μM biotinylated peptide substrate, 0.2–0.8 μCuries per well ^33P-γ-ATP (2000–3000 Ci/mmol). Assay conditions vary slightly for each protein kinase, for example, insulin receptor kinase requires 10 mM MnCl2 for activity and Calmodulin-dependent protein kinase requires calmodulin and 2 mM CaCl2. The reaction mixture was dispensed into the wells of a streptavidin coated Flashplate and 1 μL test compound in 100% DMSO was added to a 100 μL reaction volume resulting in a final concentration of 1% DMSO in the reaction. Enzyme was diluted in 50 mM Tris-HCl pH=8.0, 0.1% BSA and added to each well. The reaction was incubated for one hour at 30° C. in the presence of a test compound. After one hour the reaction mix was aspirated from the plate and the plate was washed with PBS containing 100 mM EDTA. The plate was read on a scintillation counter to determine ^33P-γ-ATP incorporated into the immobilized peptide substrate. Test compounds were assayed in duplicate at 8 concentrations (100 μM, 10 μM, 1 μM, 100 nM, 10 nM, 1 nM, 100 pM, 10 pM). A maximum and minimum signal for the assay was determined on each plate. […] Known inhibitor compounds appropriate for the kinase being assayed were also included on each plate.
The form of VEGF-R (vascular endothelial growth factor receptor-2) used was a fusion protein containing a polyhistidine tag at the N-terminus followed by amino acids 786–1343 of the rat VEGF-R2 kinase domain (GenBank Accession #U93306). The form of CDK1 (cyclin dependent kinase 1) used was isolated from insect cells expressing both the human CDK1 catalytic subunit and its positive regulatory subunit cyclin B (CDK1:cyclin B protein, New England Biolabs, Beverly, Mass., Cat. #6020). The form of CDK4 (cyclin dependent kinase 4) used contains amino acids 769 to 921 of the mouse […] protein found in the GST-retinoblastoma protein construct (Santa Cruz Biotechnology, Santa Cruz, Calif.; Cat. #SC-4112). The form of EGF-R1 (epidermal growth factor receptor 1) used was purified from human A431 cell membranes (Sigma, St. Louis, Mo., Cat.# E3641). […]

Several values for one entry are separate records, joined by “and”; a condition that tells them apart may be missing. Equal values may be shown once.

T1 sequence (O08775 786-1343): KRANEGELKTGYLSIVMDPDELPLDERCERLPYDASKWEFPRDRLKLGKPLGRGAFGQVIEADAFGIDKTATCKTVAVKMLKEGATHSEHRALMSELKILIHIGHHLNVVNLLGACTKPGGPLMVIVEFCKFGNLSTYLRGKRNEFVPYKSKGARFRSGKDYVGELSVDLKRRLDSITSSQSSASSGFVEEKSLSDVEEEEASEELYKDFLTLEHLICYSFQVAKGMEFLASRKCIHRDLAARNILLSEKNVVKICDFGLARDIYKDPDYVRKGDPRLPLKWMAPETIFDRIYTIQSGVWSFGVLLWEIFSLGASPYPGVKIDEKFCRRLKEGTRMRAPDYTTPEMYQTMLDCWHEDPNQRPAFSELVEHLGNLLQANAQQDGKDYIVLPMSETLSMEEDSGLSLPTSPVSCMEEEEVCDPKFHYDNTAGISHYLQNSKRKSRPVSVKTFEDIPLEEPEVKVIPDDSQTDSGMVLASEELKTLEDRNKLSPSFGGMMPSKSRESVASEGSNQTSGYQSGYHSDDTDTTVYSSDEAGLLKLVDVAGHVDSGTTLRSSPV

`OCCCNc1cncc(-c2ncnc(Nc3cccc(Cl)c3)n2)c1` [Compound 1, 3-((5-(4-((3-chlorophenyl)amino)-1,3,5-triazin-2-yl)-3-pyridinyl)amino)-1-propanol]: the IC50 – broadly, the concentration that inhibits the measured activity by half – with HCT-116 colon carcinoma is 278 nM; in assay [1] it was 2560 nM.

For `OCCCNc1cc(-c2ncnc(Nc3cccc(Cl)c3)n2)ccn1` [Compound 2, 3-((4-(4-((3-chlorophenyl)amino)-1,3,5-triazin-2-yl)-2-pyridinyl)amino)-1-propanol], the 50% inhibitory concentration (IC50) with HCT-116 colon carcinoma was 48 nM; in assay [1] it was 2560 nM and 2570 nM.

The values are drawn from patent publication US7205298B2, “Substituted triazine kinase inhibitors” (Janssen Pharmaceutica N.V., priority 2002, dated 2007).
